Source: patent publication US11266655B2, “Methods and compositions for treating urea cycle disorders” (Camp4 Therapeutics Corporation, priority 2019, dated 2022)

Columns and labels:
[1] = tested on: urea cycle genes; test: RNA-seq of primary human hepatocytes, compounds that modulate multiple urea cycle-related genes; type: cell-based; details: primary human hepatocytes, RNA-seq
Protocol: To identify small molecules that modulate urea cycle enzymes, primary human hepatocytes were prepared as a monoculture, and at least one small molecule compound was applied to the cells.
RNA-seq was performed to determine the effects of the compounds on the expression of urea cycle enzymes in hepatocytes. Fold change was calculated by dividing the level of expression in the cell system that had been perturbed by the level of expression in an unperturbed system. Changes in expression having a p-value ≤0.05 were considered significant.
Significance was defined as an FPKM ≥1, a log 2 (fold change) ≥0.5, and a q-value of ≤0.05 for selected gene target.

[2] = tested on: OTC; test: RNA-seq of compound-treated primary human hepatocytes, OTC expression; type: cell-based; details: for Relative OTC level vs Untreated (±Standard Deviation): primary human hepatocytes, triplicate (Table 14); for increase in OTC gene expression (Table 14, FIG. 6): Example 11, relative mRNA vs DMSO
[3] = tested on: ASS1; test: RNA-seq of compound-treated primary human hepatocytes, ASS1 expression; type: cell-based; details: for Relative ASS1 level vs Untreated (±Standard Deviation): primary human hepatocytes
[4] = tested on: ASL; test: RNA-seq of compound-treated primary human hepatocytes, ASL expression; type: cell-based; details: for Relative ASL level vs Untreated (±Standard Deviation): triplicate (Table 25, FIG. 17); for increase in ASL gene expression (Table 25, FIG. 17): Example 11, relative mRNA vs DMSO
[5] = tested on: SLC25A15; test: RNA-seq of compound-treated primary human hepatocytes, SLC25A15 expression; type: cell-based; details: for Relative SLC25A15 level vs Untreated (±Standard Deviation): primary human hepatocytes, triplicate (Table 24, FIG. 16A-B)
[6] = tested on: ARG1; test: RNA-seq of compound-treated primary human hepatocytes, ARG1 expression; type: cell-based; details: for increase in ARG1 gene expression (Tables 17, 18, FIG. 9, 10): Example 11, relative mRNA vs DMSO
[7] = tested on: CPS1; test: RNA-seq of compound-treated primary human hepatocytes, CPS1 expression; type: cell-based; details: for increase in CPS1 gene expression (Tables 19, 20, FIG. 11, 12): Example 11, relative mRNA vs DMSO
[8] = tested on: OTC; test: OTC expression modulated by compounds, OTC/GeoMean of housekeeping genes, DMSO = 1 (Table 3A); type: cell-based, human; details: 10 uM final concentration
[9] = tested on: OTC; test: siRNA knockdown of JAK/STAT/IRF genes in hepatocytes, OTC mRNA; type: cell-based, human; details: 10 nM siRNA plus 0.03 nM JAK1 siRNA, FIG. 27C
Source text: To confirm that JAK1 inhibition is necessary for OTC and CPS1 gene expression increase, JAK1, JAK2, and JAK3 expression was knocked down using the siRNA methods previously described in Example 1 (JAK1 siRNA Dharmacon #M-003145-02-0005; JAK2 siRNA Dharmacon #M-003146-02-0005; JAK3 siRNA Dharmacon #M-003147-01-0005). The cells were harvest for mRNA collection and quantification as previously described.
In addition, STAT5B is a JAK1 signal transducer and transcription factor activated by JAK1. STAT5B was knocked down in hepatocytes using siRNA (Dharmacon cat #M-010539-02-0005) as previously described in Example 1. The cells were harvest for mRNA collection and quantification as previously described.
To confirm the role of JAK1 and investigate the role of other signaling proteins and transcription factors in OTC and CPS1 expression, a panel of additional genes were knocked down with siRNA alone or in combination with JAK1. In particular, JAK2 was knockdown alone or in combination with JAK1. The combinations are shown in FIG. 26A and FIG. 26B. siRNA used to knock down JAK1 and JAK2 were: JAK1 siRNA Dharmacon #M-003145-02-0005; JAK2 siRNA Dharmacon #M-003146-02-0005. OTC and CPS1 mRNA expression was normalized to B2M. The assay was performed in triplicate in three donor hepatocyte cell lines: 371, 171, and 511A.
Cells were harvested after siRNA treatment for mRNA quantification. JAK1, OTC, and CPS1 mRNA levels were normalized to GUSB.

[10] = tested on: OTC; test: JAK inhibitors at 0.3 and 3 μM in primary human hepatocytes, OTC mRNA fold change; type: cell-based; details: fold change vs DMSO
Protocol: (§1) Additional small molecules that inhibit JAK1, JAK2, JAK3, or a combination of the JAK proteins were tested in primary human hepatocytes as described in Example 2. JAK inhibitors were tested in triplicate at 0.3 μM and 3 μM. The results are shown as the fold change (mRNA FC) in the mRNA levels of OTC and CPS1 genes after treatment compared to an untreated control (DMSO) and the standard deviation (SD).

[11] = tested on: CPS1; test: JAK inhibitors at 0.3 and 3 μM in primary human hepatocytes, CPS1 mRNA fold change; type: cell-based; details: fold change vs DMSO
Protocol: as §1

[12] = tested on: CPS1; test: JAK1 inhibitor dose titration in hepatocytes of donors A and B, CPS1 mRNA normalized to B2M; type: cell-based, human; details: for CPS1 mRNA FC, Donor A / CPS1 mRNA FC, Donor B: normalized to B2M
Protocol: (§2) Next, two JAK1 inhibitors were tested at increasing concentrations in a dose titration assy. Hepatocytes from two different donors (A and B) were incubated with the various concentrations of upadacitinib or oclacitinib maleate and harvested for mRNA analysis. OTC and CPS1 mRNA were normalized to house keeping gene B2M gene expression.

[13] = tested on: OTC; test: JAK1 inhibitor dose titration in hepatocytes of donors A and B, OTC mRNA normalized to B2M; type: cell-based, human; details: for OTC mRNA FC, Donor A / OTC mRNA FC, Donor B: normalized to B2M
Protocol: as §2

[14] = tested on: chromatin domain upstream of the OTC gene; test: ATAC-seq of the OTC insulated neighborhood in inhibitor-treated hepatocytes; details: 17 hours of inhibitor treatment
Protocol: Hepatocytes were seeded overnight, then the serum and other factors were removed. After 2-3 hours, the cells were treated with the compound and incubated overnight. The cells were harvested and the nuclei were prepared for the transposition reaction. […] After 9-12 cycles of PCR amplification, libraries were sequenced on an Illumina HiSeq 2000. PCR was performed using barcoded primers with extension at 72° C. for 5 minutes, PCR, then the final PCR product was sequenced.
All obtained reads from each sample were trimmed using trim galore 0.4.1 requiring Phred score ≥20 and read length ≥30 for data analysis. The trimmed reads were mapped against the human genome (hg19 build) using Bowtie2 (version 2.2.9) with the parameters: -t -q -N 1 -L 25 -X 2000 no-mixed no-discordant. All unmapped reads, non-uniquely mapped reads and PCR duplicates were removed. All the ATAC-seq peaks were called using MACS2 with the parameters --nolambda -nomodel -q 0.01 --SPMR. The ATAC-seq signal was visualized in the UCSC genome browser. ATAC-seq peaks that were at least 2 kb away from annotated promoters (RefSeq, Ensemble and UCSC Known Gene databases combined) were selected as distal ATAC-seq peaks.
The ATAC-seq experiment was done in triplicate.

[15] = 10 uM, triplicate (Table 15, FIG. 8)
[16] = Example 11, relative mRNA vs DMSO
[17] = 3 uM, primary human hepatocytes
[18] = 10 uM, primary human hepatocytes
[19] = primary human hepatocytes, RNA-seq
[20] = 10 μM, primary human hepatocytes, triplicate (Table 17, FIG. 9)
[21] = 10 uM, primary human hepatocytes, triplicate (Table 18, FIG. 10)
[22] = 3 uM, primary human hepatocytes, triplicate (Table 20, FIG. 12)
[23] = 10 uM, primary human hepatocytes, triplicate (Table 20, FIG. 12)
[24] = both donor cell lines (A and B)

Cc1cc(-c2nc(-c3ccc(OC(F)(F)F)cc3)no2)nn1Cc1ccnc(N2CCN(C3CC3)CC2)c1 [BAY 87-2243]
number of urea cycle genes whose expression was significantly up-regulated [1]: three
Up-regulated Genes ([1]; urea cycle-related genes significantly increased (Table 10)): CPS1, ASL, ARG1
Relative OTC level vs Untreated (±Standard Deviation) ([2]; 0.3 uM): 3.33 ± 0.60
Relative OTC level vs Untreated (±Standard Deviation) ([2]; 1 uM): 5.61 ± 3.28
Relative OTC level vs Untreated (±Standard Deviation) ([2]; 3 uM): 7.03 ± 3.84
Relative OTC level vs Untreated (±Standard Deviation) ([2]; 10 uM): 6.18 ± 1.58
increase in OTC gene expression (Table 14, FIG. 6) [2]: greatest increase
Relative ASS1 level vs Untreated (±Standard Deviation) ([3]; 0.3 μM, triplicate (Table 15, FIG. 7)): 2.79 ± 0.22
Relative ASS1 level vs Untreated (±Standard Deviation) ([3]; 0.3 uM, triplicate (Table 15, FIG. 8)): 2.11 ± 0.33
Relative ASS1 level vs Untreated (±Standard Deviation) ([3]; 1 μM, triplicate (Table 15, FIG. 7)): 3.10 ± 0.47
Relative ASS1 level vs Untreated (±Standard Deviation) ([3]; 01 uM, triplicate (Table 15, FIG. 8)): 2.61 ± 0.57
Relative ASS1 level vs Untreated (±Standard Deviation) ([3]; 3 μM, triplicate (Table 15, FIG. 7)): 2.38 ± 0.01
Relative ASS1 level vs Untreated (±Standard Deviation) ([3]; 03 uM, triplicate (Table 15, FIG. 8)): 2.87 ± 1.80
Relative ASS1 level vs Untreated (±Standard Deviation) ([3]; 10 μM, triplicate (Table 15, FIG. 7)): 2.99 ± 0.36
Relative ASS1 level vs Untreated (±Standard Deviation) [3, 15]: 2.86 ± 1.48
increase in ASS1 gene expression (Tables 15, 16, FIG. 7, 8) [3, 16]: greatest increase
Relative ASL level vs Untreated (±Standard Deviation) ([4]; 0.3 uM, primary human hepatocytes): 3.02 ± 0.25
Relative ASL level vs Untreated (±Standard Deviation) ([4]; 1 uM, primary human hepatocytes): 7.50 ± 1.10
Relative ASL level vs Untreated (±Standard Deviation) [4, 17]: 11.42 ± 6.31
Relative ASL level vs Untreated (±Standard Deviation) [4, 18]: 12.28 ± 4.98
increase in ASL gene expression (Table 25, FIG. 17) [4]: greatest increase
ASL expression, Fold change (Log 2) vs untreated [4, 19]: 0.58 Log 2
Relative SLC25A15 level vs Untreated (±Standard Deviation) ([5]; 0.3 μM): 2.85 ± 0.23
Relative SLC25A15 level vs Untreated (±Standard Deviation) ([5]; 1 μM): 2.40 ± 0.22
Relative SLC25A15 level vs Untreated (±Standard Deviation) ([5]; 3 μM): 2.89 ± 0.37
Relative SLC25A15 level vs Untreated (±Standard Deviation) ([5]; 10 μM): 2.70 ± 0.19
Increase in SLC25A15 gene expression (qualitative) [5, 16]: greatest increase
Relative ARGI level vs Untreated (±Standard Deviation) ([6]; 0.3 μM, primary human hepatocytes, triplicate (Table 17, FIG. 9)): 1.36 ± 0.43
Relative ARGI level vs Untreated (±Standard Deviation) ([6]; 1 μM, primary human hepatocytes, triplicate (Table 17, FIG. 9)): 1.98 ± 0.29
Relative ARGI level vs Untreated (±Standard Deviation) ([6]; 3 μM, primary human hepatocytes, triplicate (Table 17, FIG. 9)): 2.06 ± 0.19
Relative ARGI level vs Untreated (±Standard Deviation) [6, 20]: 2.03 ± 0.28
Relative ARGI level vs Untreated (±Standard Deviation) [6, 21]: 5.64 ± 3.44
increase in ARG1 gene expression (Tables 17, 18, FIG. 9, 10) [6]: greatest increase
Fold change (Log 2) vs untreated, ARG1 expression ([6]; primary human hepatocytes, RNA-seq (Table 7)): 1.09 Log 2
Relative CPS1 level vs Untreated (±Standard Deviation) ([7]; 0.3 uM, primary human hepatocytes, triplicate (Table 20, FIG. 12)): 3.32 ± 0.53
Relative CPS1 level vs Untreated (±Standard Deviation) ([7]; 1 uM, primary human hepatocytes, triplicate (Table 20, FIG. 12)): 5.11 ± 1.08
Relative CPS1 level vs Untreated (±Standard Deviation) ([7]; 3 μM, primary human hepatocytes, triplicate (Table 19, FIG. 11)): 1.41 ± 0.06
Relative CPS1 level vs Untreated (±Standard Deviation) [7, 22]: 5.48 ± 3.12
Relative CPS1 level vs Untreated (±Standard Deviation) [7, 23]: 5.69 ± 2.90
increase in CPS1 gene expression (Tables 19, 20, FIG. 11, 12) [7]: greatest increase
CPS1 expression, Fold change (Log 2) vs untreated [7, 19]: 1.81 Log 2

CN(c1ncccc1CNc1nc(Nc2ccc3c(c2)CC(=O)N3)ncc1C(F)(F)F)S(C)(=O)=O [PF-00562271]
Max Value (OTC/GeoMean of HKs; DMSO = 1) [8]: 3.3
Relative OTC level vs Untreated (±Standard Deviation) ([2]; 3 uM): 3.27 ± 0.59
Relative OTC level vs Untreated (±Standard Deviation) ([2]; 10 uM): 7.05 ± 1.14
increase in OTC gene expression (Table 14, FIG. 6) [2]: greatest increase
Relative ASS1 level vs Untreated (±Standard Deviation) [3, 15]: 2.30 ± 0.41
Relative ASL level vs Untreated (±Standard Deviation) [4, 17]: 2.09 ± 0.67
Relative ASL level vs Untreated (±Standard Deviation) [4, 18]: 4.92 ± 1.05
increase in ASL gene expression (Table 25, FIG. 17) [4]: greatest increase
Relative ARGI level vs Untreated (±Standard Deviation) [6, 20]: 1.32 ± 0.33
Relative ARGI level vs Untreated (±Standard Deviation) [6, 21]: 2.53 ± 0.36
increase in ARG1 gene expression (Tables 17, 18, FIG. 9, 10) [6]: greatest increase
Relative CPS1 level vs Untreated (±Standard Deviation) [7, 22]: 2.33 ± 0.58
Relative CPS1 level vs Untreated (±Standard Deviation) [7, 23]: 4.70 ± 0.49
increase in CPS1 gene expression (Tables 19, 20, FIG. 11, 12) [7]: greatest increase

STAT1 (DNA NATTTCCNGGAAAT; target site or template, no part of the molecule; chemistry not given here)
OTC expression after knockdown in combination with JAK1 [9]: increased

STAT5A (DNA ATTTCTNAGAAA; target site or template, no part of the molecule; chemistry not given here)
OTC expression after knockdown in combination with JAK1 [9]: increased

oclacitinib maleate
OTC mRNA FC ([10]; 0.3 uM): 1.32
OTC mRNA FC ([10]; 3 uM): 3.14
CPS1 mRNA FC ([11]; 0.3 uM): 1
CPS1 mRNA FC ([11]; 3 uM): 1.69
CPS1 mRNA FC, Donor A ([12]; 0.1 uM): 1.61
CPS1 mRNA FC, Donor B ([12]; 0.1 uM): 4.60
CPS1 mRNA FC, Donor A ([12]; 0.3 uM): 2.37
CPS1 mRNA FC, Donor B ([12]; 0.3 uM): 4.50
CPS1 mRNA FC, Donor A ([12]; 1 uM): 3.12
CPS1 mRNA FC, Donor B ([12]; 1 uM): 3.34
CPS1 mRNA FC, Donor A ([12]; 3 uM): 4.82
CPS1 mRNA FC, Donor B ([12]; 3 uM): 2.57
CPS1 mRNA FC, Donor A ([12]; 10 uM): 5.99
CPS1 mRNA FC, Donor B ([12]; 10 uM): 1.90
CPS1 mRNA expression, dose titration [12, 24]: dose dependent increase
OTC mRNA FC, Donor A ([13]; 0.1 uM): 1.97
OTC mRNA FC, Donor B ([13]; 0.1 uM): 2.46
OTC mRNA FC, Donor A ([13]; 0.3 uM): 2.76
OTC mRNA FC, Donor B ([13]; 0.3 uM): 4.28
OTC mRNA FC, Donor A ([13]; 1 uM): 4.79
OTC mRNA FC, Donor B ([13]; 1 uM): 5.97
OTC mRNA FC, Donor A ([13]; 3 uM): 8.92
OTC mRNA FC, Donor B ([13]; 3 uM): 11.00
OTC mRNA FC, Donor A ([13]; 10 uM): 11.65
OTC mRNA FC, Donor B ([13]; 10 uM): 11.46
OTC mRNA expression, dose titration [13, 24]: dose dependent increase
newly accessible chromatin domain upstream of the OTC gene (ATAC-seq) [14]: newly accessible chromatin domain
